Test results published in ChEMBL document CHEMBL4138123, “Design, synthesis and biological evaluation of novel pyrazolochalcones as potential modulators of PI3K/Akt/mTOR pathway and inducers of apoptosis in breast cancer cells” (Eur J Med Chem, 2017).

Key:
Assay type in all cases: functional
CAKI-1 = test: Cytotoxicity against human Caki1 cells assessed as cell growth at 0.1 uM after 48 hrs by sulforhodamine B assay relative to control; settings: CAKI-1, 48 h, read-out: Activity
A549 = test: Cytotoxicity against human A549/ATCC cells assessed as cell growth at 0.1 uM after 48 hrs by sulforhodamine B assay relative to control; settings: A549, 48 h, read-out: Activity
SR = test: Cytotoxicity against human SR cells assessed as cell growth at 10 uM after 48 hrs by sulforhodamine B assay relative to control; settings: read-out: Activity
Malme-3M = test: Cytotoxicity against human MALME-3M cells assessed as cell growth at 0.01 uM after 48 hrs by sulforhodamine B assay relative to control; settings: read-out: Activity
A498 = test: Cytotoxicity against human A498 cells assessed as cell growth at 1 uM after 48 hrs by sulforhodamine B assay relative to control; settings: A498, 48 h, read-out: Activity
Hs-578T [1] = test: Cytotoxicity against human Hs 578T cells assessed as cell growth at 10 uM after 48 hrs by sulforhodamine B assay relative to control; settings: read-out: Activity
HCT-116 = test: Cytotoxicity against human HCT116 cells assessed as cell growth at 100 uM after 48 hrs by sulforhodamine B assay relative to control; settings: HCT-116, 48 h, read-out: Activity
NCI-H522 = test: Cytotoxicity against human NCI-H522 cells assessed as cell growth at 1 uM after 48 hrs by sulforhodamine B assay relative to control; settings: NCI-H522, 48 h, read-out: Activity
NCI/ADR-RES = test: Cytotoxicity against human NCI/ADR-RES cells assessed as cell growth at 100 uM after 48 hrs by sulforhodamine B assay relative to control; settings: read-out: Activity
NCI-H23 [2] = test: Cytotoxicity against human NCI-H23 cells assessed as growth inhibition after 48 hrs by sulforhodamine B assay; settings: NCI-H23, 48 h; for CC50: read-out: LC50 (the source's name)
UACC-62 = test: Cytotoxicity against human UACC62 cells assessed as cell growth at 10 uM after 48 hrs by sulforhodamine B assay relative to control; settings: UACC-62, 48 h, read-out: Activity
NCI-H322M = test: Cytotoxicity against human NCI-H322M cells assessed as cell growth at 10 uM after 48 hrs by sulforhodamine B assay relative to control; settings: read-out: Activity
MDA-MB-468 = test: Cytotoxicity against human MDA-MB-468 cells assessed as cell growth at 1 uM after 48 hrs by sulforhodamine B assay relative to control; settings: MDA-MB-468, 48 h, read-out: Activity
CCRF-CEM = test: Cytotoxicity against human CCRF-CEM cells assessed as cell growth at 100 uM after 48 hrs by sulforhodamine B assay relative to control; settings: read-out: Activity
NCI-H23 [3] = test: Cytotoxicity against human NCI-H23 cells assessed as cell growth at 100 uM after 48 hrs by sulforhodamine B assay relative to control; settings: NCI-H23, 48 h, read-out: Activity
SW-620 [4] = test: Cytotoxicity against human SW620 cells assessed as cell growth at 10 uM after 48 hrs by sulforhodamine B assay relative to control; settings: SW-620, 48 h, read-out: Activity
SN12C = test: Cytotoxicity against human SN12C cells assessed as growth inhibition after 48 hrs by sulforhodamine B assay
MDA-MB-435 = test: Cytotoxicity against human MDA-MB-435 cells assessed as cell growth at 10 uM after 48 hrs by sulforhodamine B assay relative to control; settings: MDA-MB-435, 48 h, read-out: Activity
HCT-15 = test: Cytotoxicity against human HCT15 cells assessed as cell growth at 1 uM after 48 hrs by sulforhodamine B assay relative to control; settings: HCT-15, 48 h, read-out: Activity
TK-10 [5] = test: Cytotoxicity against human TK10 cells assessed as cell growth at 100 uM after 48 hrs by sulforhodamine B assay relative to control; settings: TK-10, 48 h, read-out: Activity
TK-10 [6] = test: Cytotoxicity against human TK10 cells assessed as cell growth at 1 uM after 48 hrs by sulforhodamine B assay relative to control; settings: TK-10, 48 h, read-out: Activity
SK-OV-3 = test: Cytotoxicity against human SKOV3 cells assessed as growth inhibition after 48 hrs by sulforhodamine B assay; settings: SK-OV-3, 48 h
OVCAR-4 [7] = test: Cytotoxicity against human OVCAR4 cells assessed as cell growth at 1 uM after 48 hrs by sulforhodamine B assay relative to control; settings: OVCAR-4, 48 h, read-out: Activity
MDA-MB-231 = test: Cytotoxicity against human MDA-MB-231 cells assessed as cell growth at 1 uM after 48 hrs by sulforhodamine B assay relative to control; settings: MDA-MB-231, 48 h, read-out: Activity
SF-268 = test: Cytotoxicity against human SF268 cells assessed as growth inhibition after 48 hrs by sulforhodamine B assay; settings: SF-268, 48 h; for CC50: read-out: LC50 (the source's name)
SK-MEL-5 [8] = test: Cytotoxicity against human SK-MEL-5 cells assessed as cell growth at 0.01 uM after 48 hrs by sulforhodamine B assay relative to control; settings: SK-MEL-5, 48 h, read-out: Activity
M14 = test: Cytotoxicity against human M14 cells assessed as cell growth at 0.1 uM after 48 hrs by sulforhodamine B assay relative to control; settings: M14, 48 h, read-out: Activity
OVCAR-4 [9] = test: Cytotoxicity against human OVCAR4 cells assessed as cell growth at 100 uM after 48 hrs by sulforhodamine B assay relative to control; settings: OVCAR-4, 48 h, read-out: Activity
MOLT-4 = test: Cytotoxicity against human MOLT4 cells assessed as cell growth at 0.01 uM after 48 hrs by sulforhodamine B assay relative to control; settings: MOLT-4, 48 h, read-out: Activity
SK-MEL-5 [10] = test: Cytotoxicity against human SK-MEL-5 cells assessed as growth inhibition after 48 hrs by sulforhodamine B assay; settings: SK-MEL-5, 48 h
BT-549 = test: Cytotoxicity against human BT549 cells assessed as cell growth at 0.01 uM after 48 hrs by sulforhodamine B assay relative to control; settings: BT-549, 48 h, read-out: Activity
RPMI-8226 = test: Cytotoxicity against human RPMI8226 cells assessed as cell growth at 0.01 uM after 48 hrs by sulforhodamine B assay relative to control; settings: RPMI-8226, 48 h, read-out: Activity
SW-620 [11] = test: Cytotoxicity against human SW620 cells assessed as cell growth at 0.1 uM after 48 hrs by sulforhodamine B assay relative to control; settings: SW-620, 48 h, read-out: Activity
Hs-578T [12] = test: Cytotoxicity against human Hs 578T cells assessed as cell growth at 0.1 uM after 48 hrs by sulforhodamine B assay relative to control; settings: read-out: Activity
NCI-H226 = test: Cytotoxicity against human NCI-H226 cells assessed as cell growth at 100 uM after 48 hrs by sulforhodamine B assay relative to control; settings: NCI-H226, 48 h, read-out: Activity

SMILES	growth at 0.1 µM (CAKI-1) [%]	growth at 0.1 µM (A549) [%]	growth at 10 µM (SR) [%]	growth at 0.01 µM (Malme-3M) [%]	growth at 1 µM (A498) [%]	growth at 10 µM (Hs-578T [1]) [%]	growth at 100 µM (HCT-116) [%]	growth at 1 µM (NCI-H522) [%]	TGI (NCI-H23 [2]) [µM]	CC50 (NCI-H23 [2]) [µM]	growth at 10 µM (UACC-62) [%]	growth at 10 µM (NCI-H322M) [%]	growth at 1 µM (MDA-MB-468) [%]	growth at 100 µM (CCRF-CEM) [%]	growth at 100 µM (NCI-H23 [3]) [%]	growth at 10 µM (SW-620 [4]) [%]	LC50 (SN12C) [µM]	TGI (SN12C) [µM]	growth at 1 µM (HCT-15) [%]	growth at 100 µM (TK-10 [5]) [%]	other results
COc1cc(-c2cc(/C=C/C(=O)c3ccc4c(c3)OCO4)[nH]n2)cc(OC)c1OC	96	98	6	93	83	17	1	52	> 100	> 100	26	3	74	-13	20	-9	> 100	> 100	81	-47	growth at 100 µM (NCI/ADR-RES): 1%; growth at 10 µM (MDA-MB-435): -15%; growth at 1 µM (TK-10 [6]): 97%; LC50 (SK-OV-3): > 100 µM; TGI (SK-OV-3): 26.1 µM; growth at 1 µM (OVCAR-4 [7]): 82%; growth at 1 µM (MDA-MB-231): 86%; TGI (SF-268): 14.5 µM; CC50 (SF-268): > 100 µM; growth at 0.01 µM (SK-MEL-5 [8]): 98%; growth at 0.1 µM (M14): 97%; growth at 100 µM (OVCAR-4 [9]): 3%; growth at 0.01 µM (MOLT-4): 97%; LC50 (concentration killing 50% of cells) (SK-MEL-5 [10]): > 100 µM; TGI (SK-MEL-5 [10]): > 100 µM; growth at 0.01 µM (BT-549): 94%; growth at 0.01 µM (RPMI-8226): 92%; growth at 0.1 µM (SW-620 [11]): 96%; growth at 0.1 µM (Hs-578T [12]): 98%
COc1cc(-c2cc(/C=C/C(=O)c3ccc(Cl)c(Cl)c3)[nH]n2)cc(OC)c1OC	91	99	8	94	73	63	-32	67	> 100	> 100	63	59	76	-15	5	47	> 100	> 100	86	-27	growth at 100 µM (NCI/ADR-RES): 5%; growth at 10 µM (MDA-MB-435): 37%; growth at 1 µM (TK-10 [6]): 93%; LC50 (SK-OV-3): 62.5 µM; TGI (SK-OV-3): 18.8 µM; growth at 1 µM (OVCAR-4 [7]): 107%; growth at 1 µM (MDA-MB-231): 89%; TGI (SF-268): 63.3 µM; CC50 (SF-268): > 100 µM; growth at 0.01 µM (SK-MEL-5 [8]): 98%; growth at 0.1 µM (M14): 94%; growth at 100 µM (OVCAR-4 [9]): -22%; growth at 0.01 µM (MOLT-4): 98%; LC50 (concentration killing 50% of cells) (SK-MEL-5 [10]): > 100 µM; TGI (SK-MEL-5 [10]): 46.9 µM; growth at 0.01 µM (BT-549): 89%; growth at 0.01 µM (RPMI-8226): 100%; growth at 0.1 µM (SW-620 [11]): 99%; growth at 0.1 µM (Hs-578T [12]): 105%
COc1ccc(C(=O)/C=C/c2cc(-c3ccc4c(c3)OCO4)n[nH]2)cc1OC	100	96	-13	93	72	-9	-64	84	19.6	66	19	-15	85	-13	-67	-43	53.7	13.6	86	-58	growth at 100 µM (NCI-H226): -20%; growth at 1 µM (TK-10 [6]): 97%; LC50 (SK-OV-3): > 100 µM; TGI (SK-OV-3): 26.4 µM; growth at 1 µM (OVCAR-4 [7]): 65%; growth at 1 µM (MDA-MB-231): 90%; TGI (SF-268): 7.61 µM; CC50 (SF-268): 40.5 µM; growth at 0.01 µM (SK-MEL-5 [8]): 96%; growth at 0.1 µM (M14): 98%; growth at 100 µM (OVCAR-4 [9]): -12%; growth at 0.01 µM (MOLT-4): 97%; LC50 (concentration killing 50% of cells) (SK-MEL-5 [10]): 46.4 µM; TGI (SK-MEL-5 [10]): 19.9 µM; growth at 0.01 µM (BT-549): 102%; growth at 0.01 µM (RPMI-8226): 99%; growth at 0.1 µM (SW-620 [11]): 95%; growth at 0.1 µM (Hs-578T [12]): 92%
